Tests used:
human TLR8 = target: T1, human TLR8 (Homo sapiens, UniProt Q9NR97); test: TLR8 inhibition reporter assay (HEK-Blue SEAP); assay type: cell-based; settings: HEK-Blue cells overexpressing human TLR8, R848 15.9 μM, 22 hour incubation
T1 construct: host or cells: HEK-Blue cells
T1 sequence (Q9NR97 27-1041): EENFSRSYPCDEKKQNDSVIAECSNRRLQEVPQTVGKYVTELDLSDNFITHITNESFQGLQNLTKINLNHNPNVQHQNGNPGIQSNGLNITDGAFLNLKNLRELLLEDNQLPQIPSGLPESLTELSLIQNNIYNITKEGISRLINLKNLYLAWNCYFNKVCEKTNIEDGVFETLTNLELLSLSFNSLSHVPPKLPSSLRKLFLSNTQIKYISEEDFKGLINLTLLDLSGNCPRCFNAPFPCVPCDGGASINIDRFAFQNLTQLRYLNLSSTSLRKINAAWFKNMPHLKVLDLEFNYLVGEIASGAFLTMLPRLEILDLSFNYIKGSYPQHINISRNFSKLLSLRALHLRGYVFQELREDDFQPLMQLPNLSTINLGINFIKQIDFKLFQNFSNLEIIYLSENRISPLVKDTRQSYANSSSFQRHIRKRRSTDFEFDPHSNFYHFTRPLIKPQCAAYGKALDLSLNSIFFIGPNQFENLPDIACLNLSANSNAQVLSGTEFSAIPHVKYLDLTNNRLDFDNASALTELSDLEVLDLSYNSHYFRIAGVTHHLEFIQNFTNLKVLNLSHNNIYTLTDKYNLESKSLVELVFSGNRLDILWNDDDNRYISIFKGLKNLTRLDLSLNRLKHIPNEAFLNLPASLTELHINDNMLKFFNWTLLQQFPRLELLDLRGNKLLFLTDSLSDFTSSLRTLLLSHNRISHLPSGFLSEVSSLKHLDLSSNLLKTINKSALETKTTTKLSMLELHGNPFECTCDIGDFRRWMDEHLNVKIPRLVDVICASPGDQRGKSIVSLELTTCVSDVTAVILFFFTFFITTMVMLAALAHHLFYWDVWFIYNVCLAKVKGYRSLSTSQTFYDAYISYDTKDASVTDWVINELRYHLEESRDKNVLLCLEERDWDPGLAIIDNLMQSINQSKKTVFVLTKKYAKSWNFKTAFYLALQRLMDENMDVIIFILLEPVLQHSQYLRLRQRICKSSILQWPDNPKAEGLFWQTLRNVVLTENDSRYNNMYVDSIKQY
Procedure, shortened: (§1)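 Human TLR7/8/9 HEK-Blue reporter lines; dose range 0.05 nM–50 μM; 30 min RT preincubation; stimulus gardiquimod 7.5 μM / R848 15.9 μM / ODN2006 5 nM respectively; 22 h, 37 °C; SEAP detected colorimetrically.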

human TLR9 = target: T2, human TLR9 (Homo sapiens, UniProt Q9NR96); test: TLR9 inhibition reporter assay (HEK-Blue SEAP); assay type: cell-based; settings: HEK-Blue cells overexpressing human TLR9, ODN2006 5 nM, 22 hour incubation
T2 construct: host or cells: HEK-Blue cells
T2 sequence (Q9NR96 26-1032): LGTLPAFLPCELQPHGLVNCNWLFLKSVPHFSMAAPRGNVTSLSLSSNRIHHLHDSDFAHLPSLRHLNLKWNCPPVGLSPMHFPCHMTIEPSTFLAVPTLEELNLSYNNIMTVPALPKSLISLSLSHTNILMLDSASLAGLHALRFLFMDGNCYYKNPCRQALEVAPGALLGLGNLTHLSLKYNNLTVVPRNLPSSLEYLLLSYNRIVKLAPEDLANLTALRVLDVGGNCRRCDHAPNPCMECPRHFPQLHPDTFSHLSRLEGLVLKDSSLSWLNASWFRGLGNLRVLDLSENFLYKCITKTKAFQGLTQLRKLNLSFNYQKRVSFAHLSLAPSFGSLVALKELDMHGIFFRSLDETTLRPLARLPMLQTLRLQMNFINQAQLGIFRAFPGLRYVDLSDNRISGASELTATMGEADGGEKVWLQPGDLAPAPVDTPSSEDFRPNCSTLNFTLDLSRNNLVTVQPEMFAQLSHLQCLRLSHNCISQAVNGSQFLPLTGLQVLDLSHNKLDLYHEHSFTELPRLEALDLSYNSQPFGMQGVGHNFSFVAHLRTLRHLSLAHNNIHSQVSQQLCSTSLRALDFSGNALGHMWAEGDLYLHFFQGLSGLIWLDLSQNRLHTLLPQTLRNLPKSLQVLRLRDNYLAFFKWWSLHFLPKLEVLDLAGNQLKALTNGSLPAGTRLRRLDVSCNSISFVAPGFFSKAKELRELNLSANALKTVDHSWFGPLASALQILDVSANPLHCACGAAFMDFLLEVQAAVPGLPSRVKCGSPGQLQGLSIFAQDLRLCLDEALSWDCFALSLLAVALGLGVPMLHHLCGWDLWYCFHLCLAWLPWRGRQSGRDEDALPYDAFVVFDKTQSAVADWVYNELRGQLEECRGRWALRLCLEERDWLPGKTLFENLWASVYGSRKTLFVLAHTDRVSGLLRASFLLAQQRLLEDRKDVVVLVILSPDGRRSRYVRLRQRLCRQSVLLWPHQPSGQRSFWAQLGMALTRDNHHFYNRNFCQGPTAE
Procedure, shortened: as §1

SMILES | IC50 (human TLR8) | IC50 (human TLR9)
CCc1cc2c(cc1-c1cc(OC)c3ncnn3c1)[nH]c(=O)n2[C@H]1CC[C@@H](N(CC)CC)CC1 [Example 169, 1-((1s,4s)-4-(diethylamino)cyclohexyl)-6-ethyl-5-(8-methoxy-[1,2,4]triazolo[1,5-a]pyridin-6-yl)-1,3-dihydro-2H-benzo[d]imidazol-2-one] | 740 pM | 18.3 µM
COc1cc(-c2cc3[nH]c(=O)n([C@H]4CC[C@@H](NC5CCOCC5)CC4)c3cc2C(C)C)cn2ncnc12 [Example 193, 6-isopropyl-5-(8-methoxy-[1,2,4]triazolo[1,5-a]pyridin-6-yl)-1-((1s,4s)-4-((tetrahydro-2H-pyran-4-yl)amino)cyclohexyl)-1,3-dihydro-2H-benzo[d]imidazol-2-one] | 480 pM | 21.4 µM
CCc1cc2c(cc1-c1cc(OC)c3ncnn3c1)[nH]c(=O)n2[C@@H]1CCCN(CC2CCC2)C1 [Example 181, (R)-1-(1-(cyclobutylmethyl)piperidin-3-yl)-6-ethyl-5-(8-methoxy-[1,2,4]triazolo[1,5-a]pyridin-6-yl)-1,3-dihydro-2H-benzo[d]imidazol-2-one] | 1680 pM | 6.77 µM
CCc1cc2c(cc1-c1cc(OC)c3ncnn3c1)[nH]c(=O)n2[C@@H]1CCCN(CC(C)(C)C)C1 [Example 180, (R)-6-ethyl-5-(8-methoxy-[1,2,4]triazolo[1,5-a]pyridin-6-yl)-1-(1-neopentylpiperidin-3-yl)-1,3-dihydro-2H-benzo[d]imidazol-2-one] | 4290 pM | 10.3 µM
Cc1c(-c2cc3[nH]c(=O)n([C@H]4CC[C@@H](NC(C)C)CC4)c3cc2C(C)C)cn2ncnc2c1C [Example 186, 5-(7,8-dimethyl-[1,2,4]triazolo[1,5-a]pyridin-6-yl)-6-isopropyl-1-((1s,4s)-4-(isopropylamino)cyclohexyl)-1,3-dihydro-2H-benzo[d]imidazol-2-one] | 130 pM | 5.99 µM

Further lines, results first:

IC50 (human TLR8) | IC50 (human TLR9) | SMILES
570 pM | 6.53 µM | COc1cc(-c2cc3[nH]c(=O)n([C@H]4CC[C@H](N(CC5CC5)CC5CC5)CC4)c3cc2C(C)C)cn2ncnc12 [Example 206, 1-((1r,4s)-4-(bis(cyclopropylmethyl)amino)cyclohexyl)-6-isopropyl-5-(8-methoxy-[1,2,4]triazolo[1,5-a]pyridin-6-yl)-1,3-dihydro-2H-benzo[d]imidazol-2-one]
810 pM | 23 µM | COc1cc(-c2cc3[nH]c(=O)n([C@H]4CC[C@H](N(C)C)CC4)c3cc2C(C)C)cn2ncnc12 [Example 202, 1-((1r,4r)-4-(dimethylamino)cyclohexyl)-6-isopropyl-5-(8-methoxy-[1,2,4]triazolo[1,5-a]pyridin-6-yl)-1,3-dihydro-2H-benzo[d]imidazol-2-one]
2180 pM | 30 µM | COc1c(C)c(-c2cc3[nH]c(=O)n(C4CCC(N5CCC(F)(F)CC5)CC4)c3cc2C(C)C)cn2ncnc12 (single isomer, unassigned) [Example 229, 1-(4-(4,4-difluoropiperidin-1-yl)cyclohexyl)-6-isopropyl-5-(8-methoxy-7-methyl-[1,2,4]triazolo[1,5-a]pyridin-6-yl)-1,3-dihydro-2H-benzo[d]imidazol-2-one]
40 pM | 6.26 µM | COc1cc(-c2cc3[nH]c(=O)n([C@H]4CC[C@@H](NCC(C)(C)C)CC4)c3cc2C(C)C)cn2ncnc12 [Example 197, 6-isopropyl-5-(8-methoxy-[1,2,4]triazolo[1,5-a]pyridin-6-yl)-1-((1s,4s)-4-(neopentylamino)cyclohexyl)-1,3-dihydro-2H-benzo[d]imidazol-2-one]
350 pM | 2.59 µM | COc1cc(-c2cc3[nH]c(=O)n(C4CCC(N5CC6(CCOCC6)C5)CC4)c3cc2C(C)C)cn2ncnc12 (single isomer, unassigned) [Example 236, 1-(4-(7-oxa-2-azaspiro[3.5]nonan-2-yl)cyclohexyl)-6-isopropyl-5-(8-methoxy-[1,2,4]triazolo[1,5-a]pyridin-6-yl)-1,3-dihydro-2H-benzo[d]imidazol-2-one]

From patent US12187723B2 (BRISTOL-MYERS SQUIBB COMPANY, priority 2019, dated 2025)
